The source of these data is patent US20250249001A1, “METHODS OF TREATING SUBSTANCE USE DISORDER WITH 4-(3-CYANOPHENYL)-6-PYRIDINYLPYRIMIDINE MGLU5 NEGATIVE ALLOSTERIC MODULATORS” (Tempero Bio, Inc., priority 2022, published 2025).

Where two headings read alike, the source gives them in different places.

The subject of experiment [1] is cocaine reinstatement in rats. The experiment is described as follows: Yohimbine-induced reinstatement of cocaine self-administration (Stage II). The class given is in vivo, Sprague-Dawley rats. To be noted: for cocaine reinstatement, Mean Diff., Last Day of Cocaine Retraining vs treatment - Yohimbine / cocaine reinstatement, Mean Diff., Last Day of Extinction vs. treatment - Yohimbine / cocaine reinstatement, Mean Diff., Saline - Yohimbine 2 mg/kg vs. treatment - Yohimbine: 3 mg/kg, thirty min before yohimbine 2 mg/kg. The protocol: After completion of Stage I, the rats were re-trained with cocaine for one week to ensure stable baseline. And then the rats underwent a 6-day extinction training procedure in which only saline infusion occurred when active lever was pressed. Meanwhile, the rats were divided into 3 roughly even groups for pharmacological stressor-induced reinstatement—All rats received one injection of alpha-2 adrenergic antagonist yohimbine (2 mg/kg) and then placed into the training box immediately). Thirty min before yohimbine treatment, one group of rats received saline, another group received MTEP 3 mg/kg injection, and the 3rd group received Compound 1 at 3 mg/kg.
Yohimbine-induced reinstatement was re-tested two more times in the same rats 3 days and 6 days after the first test, under continuous extinction procedure (There were 2 more days of extinction training between the 1st and 2nd reinstatement test, and between the 2nd and 3rd reinstatement test). Using the 3×3 within subject design, each given animal goes through all three treatments (saline, MTEP and Compound 1) across the three rounds of test.
A one-way mixed-effects model (REML) of ANOVA followed by Dunnett's post hoc tests were used to analyze efficacy of Compound 1 and MTEP on cocaine self-administration in stages I (The repeated measure ANOVA was not totally applicable due to a few outlier data points, which are removed), and one-way mixed-effects model (REML) of ANOVA followed by Tukey's post hoc tests were used in Stage II. An effect was considered significant if P<0.05. Data were represented as the mean and standard error to the mean (s.e.m).
Statistical outliers which exceeded mean +/− (2× standard deviation) of the group were removed from the analysis. Also, for reinstatement, the extinction time was shortened (from 9 days plus extension as option to 6 days). In the present study, 3 rounds of reinstatement tests were performed, and we wished to maintain the reinstatement power, thus we cut extinction duration. Accordingly, we loosened the extinction criterion from 6 or less infusions to 9 or less infusions during the last extinction session. With this criterion, 17 out of 21 rats were eligible in drug test in Stage II.

For experiment [2], the system named is cocaine self-administration in rats.
In experiment [3] the test system is cocaine-induced CPP in male SD rats. The class given is in vivo, Sprague Dawley rats. To be noted: for time difference (drug-paired vs saline-paired) vs Cocaine-Saline group / time spent in the drug-paired compartment vs Cocaine-Saline group: day 10. The protocol:
Animals: Male Sprague Dawley rats (Envigo, IN, 275-299 g) were group housed upon arrival (2 per cage). All rats were examined and handled to assure adequate health and suitability. During the study, a 12/12 light/dark cycle was maintained (lights switched on at 7:00 am). The room temperature was maintained between […] and 23° C. with a relative humidity maintained around 50%. Chow (LabDiet #5001) and water were provided ad libitum for the duration of the study. The test was performed during the animal's light cycle phase.
Cocaine (10 mg/kg) was dissolved in saline and injected IP at a dose volume of 1 ml/kg. Cocaine was administered on training days 3, 5, 7 and 9 immediately prior to training.
3-((2-Methyl-4-thiazolyl)ethynyl)pyridine (MTEP, 3 mg/kg), was dissolved in saline and injected IP on day 10 (bias test) at a dose volume of 1 ml/kg 30 minutes prior to testing.
Compound 1 (1, 3 and 10 mg/kg) was formulated in 10% Solutol HS15 and 90% (10% aqueous 2-hydroxypropyl-β-cyclodextrin) and injected IP on day 10 (bias test) at a dose volume of 2 ml/kg. Compound 1 was administered 30 minutes prior to testing.
The chamber used in this study contained two compartments [(60 cm (L)×40 cm (W)×24 cm (H)]. The compartment used for each animal and drug pairing was assigned and counterbalanced in advance and adjusted as necessary in the rebalancing procedure after day 1 (see details below). Within the chamber, visual and physical features were used to create the two distinct compartments. For example, one compartment may have a flat plastic floor with white stripes and the other may have a textured floor and black stripes. The chambers were cleaned with 70% alcohol in between runs.
Testing sessions were recorded on days 1 and 10 to determine time spent (seconds) in each chamber.
Day 1 Pre-conditioning/Habituation: Animals are allowed to explore the entire testing chamber freely for 20 min. Animals that display a strong preference for one compartment (>75% time spent in one compartment) are excluded.
Rebalancing Procedure: Animals are rebalanced following day 1 scoring if the difference between groups for time spent in one compartment is greater than 15%.
Days 2-9 Conditioning: All animals are treated with saline on days 2, 4, 6, and 8 and with cocaine or saline on days 3, 5, 7, and 9 depending on their assigned group. Animals are confined to their assigned compartment (saline- or cocaine-paired compartment) for 20 minutes following dosing.
Day 10 Post-conditioning bias test: Animals are dosed once with either saline, MTEP or Compound 1 (1, 3 and 10 mg/kg) according to their assigned. Following dosing, animals are allowed to explore the testing chamber freely for 20 minutes with the compartment dividing door open. Their activity exploring the chamber is recorded for analysis.
Statistical Analysis: Statistical analysis was conducted using GraphPad Prism 9. Scorers blinded to the treatment groups scored the amount of time each animal spent exploring each chamber on days 1 and 10. For bias test data, a one-way analysis of variance (ANOVA) followed by Dunnett's post hoc test was used. Significance was set at p<0.05 and values exceeding two standard deviations of the mean were considered statistical outliers and were excluded from the analysis. Additionally, if an animal spent >85% or <15% of the time in one compartment even without any obvious signs of sedation or locomotor dysfunction, they were excluded from the analysis.

The mark [4] stands for this setting: 3 mg/kg IP, FR5, 1 hour session.
The mark [5] stands for this setting: 1 mg/kg IP 30 minutes prior to day 10 bias test.
Setting [6] is: MTEP 3 mg/kg IP 30 minutes prior to day 10 bias test.

In the case of `N#Cc1cc(Cl)cc(-c2cc(-c3ccc(F)cn3)ncn2)c1` [Compound 1, 3-chloro-5-[6-(5-fluoropyridin-2-yl)pyrimidin-4-yl]benzonitrile], in experiment [1], the “cocaine reinstatement, Mean Diff., Last Day of Cocaine Retraining vs treatment - Yohimbine” value stood at 26.57; the “cocaine reinstatement, Mean Diff., Last Day of Extinction vs. treatment - Yohimbine” value is listed as 5.749; the “cocaine reinstatement, Mean Diff., Saline - Yohimbine 2 mg/kg vs. treatment - Yohimbine” value was determined as 20.28. The “cocaine reinstatement, Mean Diff., MTEP 3 mg/kg - Yohimbine vs. Compound 1 (3 mg/kg) - Yohimbine” value in experiment [1] (both 3 mg/kg before yohimbine 2 mg/kg) was −0.1333. Further, the “cocaine self-administration, Mean Diff., Saline vs. treatment” value in experiment [2] (1 mg/kg IP 30 min before testing, FR5) was determined as 15.73. In addition, in experiment [2] (setting [4]), the “cocaine self-administration, Mean Diff., Saline vs. treatment” value amounted to 24.3. In addition, the “cocaine self-administration, Mean Diff., Saline vs. treatment” value in experiment [2] (10 mg/kg IP 30 min before testing, FR5) was 27.07. For the same molecule, the “cocaine self-administration vs saline treatment” value in experiment [2] (all three doses, 1, 3 and 10 mg/kg IP) was “significantly attenuate cocaine self-administration”. In experiment [3] (setting [5]), the “Percent time in compound-paired compartment, Mean Diff., Cocaine - Saline vs. Cocaine - Compound 1 (1 mg/kg)” value is reported as 19.16% and the “Preference Scores, Mean Diff., Cocaine - Saline vs. Cocaine - Compound 1 (1 mg/kg)” value amounted to 459.9 s. In experiment [3] (1 mg/kg IP, p<0.01), the “time difference (drug-paired vs saline-paired) vs Cocaine-Saline group” value is listed as “significantly lower time difference” and the “time spent in the drug-paired compartment vs Cocaine-Saline group” value is recorded as “significantly less time in the drug-paired compartment”.
For `Cc1nc(C#Cc2cccnc2)cs1` [MTEP, 3-((2-Methyl-4-thiazolyl)ethynyl)pyridine], in experiment [1], the “cocaine reinstatement, Mean Diff., Last Day of Cocaine Retraining vs treatment - Yohimbine” value was 26.71; the “cocaine reinstatement, Mean Diff., Last Day of Extinction vs. treatment - Yohimbine” value is listed as 5.882; the “cocaine reinstatement, Mean Diff., Saline - Yohimbine 2 mg/kg vs. treatment - Yohimbine” value was found to be 20.41. For the same molecule, the “cocaine infusion vs saline treatment” value in experiment [2] (3 mg/kg IP) is “significantly decreased cocaine infusion”. Moreover, the “cocaine self-administration, Mean Diff., Saline vs. treatment” value in experiment [2] (setting [4]) is 19.93. Besides, in experiment [3] (3 mg/kg IP, p<0.05), the “time difference (drug-paired vs saline-paired) vs Cocaine-Saline group” value was “significantly lower time difference” and the “time spent in the drug-paired compartment vs Cocaine-Saline group” value is “significantly less time in the drug-paired compartment”. Besides, in experiment [3] (setting [6]), the “Percent time in compound-paired compartment, Mean Diff., Cocaine - Saline vs. Cocaine - MTEP” value amounted to 18.73% and the “Preference Scores, Mean Diff., Cocaine - Saline vs. Cocaine - MTEP” value was 449.6 s.
